Laboratory results from patent publication US20260209193A1, “NOVEL INHIBITORS OF DNA DAMAGE RESPONSES FOR CANCER THERAPY” (The Regents of the University of California, priority 2022, published 2026).

Key:
[1] = molecular target: T1, ATR (Homo sapiens, UniProt Q13535); test: ATR-mediated signaling: phosphorylation of Rad17 Ser 645 and CHK1 Ser 345 in cells; assay type: cell-based; settings: for ATR inhibition potency relative to JC099 (OLA- or UV-induced phosphorylation of Rad17 and CHK1): compared to JC099
T1 construct: endogenous in cells; host or cells: PC3, C4-2B/MR, SUM149PT-BRCA1rev, UWB1.289+BRCA1, MDA-MB-231
Description: PARP inhibitor-resistant cells are increasingly dependent on ATR for survival, and ATR inhibition disrupts restored HR and fork protection pathways in PARP inhibitor resistant BRCA-deficient cancer cells. For ATR kinase in vitro assays, ATR was immunoprecipitated with 3 μg of anti-ATR antibody (Bethyl Laboratories, A300-137A) from 1 mg of cell lysate. […] The IC50 was determined by the enzyme profiling service of Eurofins Cerep (France). […] The phosphorylation of CHK1 at Ser 345 sites was used as a bio-marker of ATR-mediated signaling pathway. The phosphorylation of Rad17 at Ser 645, which is a substrate of ATR, was also examined.
ATR inhibition was assessed in C4-2B/MR cells. Considering ATM is a homologous protein of ATR, we also detected the effect of JC046 analogs on the phosphorylation of KAP1 at Ser 824 and CHK2 at Thr 68 sites, which were used as markers of ATM signaling pathway.

[2] = molecular target: T2, PARP1 (Homo sapiens, UniProt P09874); test: PARP1 trapping, chromatin fractionation (chromatin-bound fraction); assay type: cell-based
T2 construct: endogenous in cells; host or cells: PC3
From the text: The trapped PARP1 forms a toxic lesion and stalls the progress of replication forks. The replication fork collapses in BRCA1/2-deficient cancer cells, and then results in cell death. […] Six cancer cell lines were used in this assay, including two breast cancer cell lines, BRCA1-mutunt SUM149PT-BRCA1mut and SUM149PT-BRCA1rev where deleterious BRCA1 mutation is reverted to form a functional BRCA1, two ovarian cancer cell lines, BRCA1-null UWB1.289 and UWB1.289+BRCA1, a stable cell line in which wild-type BRCA1 function has been restored, and two prostate cancer cell lines, enzalutamide resistant C4-2B/MR which is homologous recombination (HR)-deficient due to Rad51 mutation, and enzalutamide insensitive PC3 which is HR-proficient.

[3] = 1 μM and 2 μM, PC3 and SUM149PT-BRCA1rev cells
[4] = 0.5 μM and 2 μM, PC3 and C4-2B/MR cells

T1 sequence (Q13535 whole entry): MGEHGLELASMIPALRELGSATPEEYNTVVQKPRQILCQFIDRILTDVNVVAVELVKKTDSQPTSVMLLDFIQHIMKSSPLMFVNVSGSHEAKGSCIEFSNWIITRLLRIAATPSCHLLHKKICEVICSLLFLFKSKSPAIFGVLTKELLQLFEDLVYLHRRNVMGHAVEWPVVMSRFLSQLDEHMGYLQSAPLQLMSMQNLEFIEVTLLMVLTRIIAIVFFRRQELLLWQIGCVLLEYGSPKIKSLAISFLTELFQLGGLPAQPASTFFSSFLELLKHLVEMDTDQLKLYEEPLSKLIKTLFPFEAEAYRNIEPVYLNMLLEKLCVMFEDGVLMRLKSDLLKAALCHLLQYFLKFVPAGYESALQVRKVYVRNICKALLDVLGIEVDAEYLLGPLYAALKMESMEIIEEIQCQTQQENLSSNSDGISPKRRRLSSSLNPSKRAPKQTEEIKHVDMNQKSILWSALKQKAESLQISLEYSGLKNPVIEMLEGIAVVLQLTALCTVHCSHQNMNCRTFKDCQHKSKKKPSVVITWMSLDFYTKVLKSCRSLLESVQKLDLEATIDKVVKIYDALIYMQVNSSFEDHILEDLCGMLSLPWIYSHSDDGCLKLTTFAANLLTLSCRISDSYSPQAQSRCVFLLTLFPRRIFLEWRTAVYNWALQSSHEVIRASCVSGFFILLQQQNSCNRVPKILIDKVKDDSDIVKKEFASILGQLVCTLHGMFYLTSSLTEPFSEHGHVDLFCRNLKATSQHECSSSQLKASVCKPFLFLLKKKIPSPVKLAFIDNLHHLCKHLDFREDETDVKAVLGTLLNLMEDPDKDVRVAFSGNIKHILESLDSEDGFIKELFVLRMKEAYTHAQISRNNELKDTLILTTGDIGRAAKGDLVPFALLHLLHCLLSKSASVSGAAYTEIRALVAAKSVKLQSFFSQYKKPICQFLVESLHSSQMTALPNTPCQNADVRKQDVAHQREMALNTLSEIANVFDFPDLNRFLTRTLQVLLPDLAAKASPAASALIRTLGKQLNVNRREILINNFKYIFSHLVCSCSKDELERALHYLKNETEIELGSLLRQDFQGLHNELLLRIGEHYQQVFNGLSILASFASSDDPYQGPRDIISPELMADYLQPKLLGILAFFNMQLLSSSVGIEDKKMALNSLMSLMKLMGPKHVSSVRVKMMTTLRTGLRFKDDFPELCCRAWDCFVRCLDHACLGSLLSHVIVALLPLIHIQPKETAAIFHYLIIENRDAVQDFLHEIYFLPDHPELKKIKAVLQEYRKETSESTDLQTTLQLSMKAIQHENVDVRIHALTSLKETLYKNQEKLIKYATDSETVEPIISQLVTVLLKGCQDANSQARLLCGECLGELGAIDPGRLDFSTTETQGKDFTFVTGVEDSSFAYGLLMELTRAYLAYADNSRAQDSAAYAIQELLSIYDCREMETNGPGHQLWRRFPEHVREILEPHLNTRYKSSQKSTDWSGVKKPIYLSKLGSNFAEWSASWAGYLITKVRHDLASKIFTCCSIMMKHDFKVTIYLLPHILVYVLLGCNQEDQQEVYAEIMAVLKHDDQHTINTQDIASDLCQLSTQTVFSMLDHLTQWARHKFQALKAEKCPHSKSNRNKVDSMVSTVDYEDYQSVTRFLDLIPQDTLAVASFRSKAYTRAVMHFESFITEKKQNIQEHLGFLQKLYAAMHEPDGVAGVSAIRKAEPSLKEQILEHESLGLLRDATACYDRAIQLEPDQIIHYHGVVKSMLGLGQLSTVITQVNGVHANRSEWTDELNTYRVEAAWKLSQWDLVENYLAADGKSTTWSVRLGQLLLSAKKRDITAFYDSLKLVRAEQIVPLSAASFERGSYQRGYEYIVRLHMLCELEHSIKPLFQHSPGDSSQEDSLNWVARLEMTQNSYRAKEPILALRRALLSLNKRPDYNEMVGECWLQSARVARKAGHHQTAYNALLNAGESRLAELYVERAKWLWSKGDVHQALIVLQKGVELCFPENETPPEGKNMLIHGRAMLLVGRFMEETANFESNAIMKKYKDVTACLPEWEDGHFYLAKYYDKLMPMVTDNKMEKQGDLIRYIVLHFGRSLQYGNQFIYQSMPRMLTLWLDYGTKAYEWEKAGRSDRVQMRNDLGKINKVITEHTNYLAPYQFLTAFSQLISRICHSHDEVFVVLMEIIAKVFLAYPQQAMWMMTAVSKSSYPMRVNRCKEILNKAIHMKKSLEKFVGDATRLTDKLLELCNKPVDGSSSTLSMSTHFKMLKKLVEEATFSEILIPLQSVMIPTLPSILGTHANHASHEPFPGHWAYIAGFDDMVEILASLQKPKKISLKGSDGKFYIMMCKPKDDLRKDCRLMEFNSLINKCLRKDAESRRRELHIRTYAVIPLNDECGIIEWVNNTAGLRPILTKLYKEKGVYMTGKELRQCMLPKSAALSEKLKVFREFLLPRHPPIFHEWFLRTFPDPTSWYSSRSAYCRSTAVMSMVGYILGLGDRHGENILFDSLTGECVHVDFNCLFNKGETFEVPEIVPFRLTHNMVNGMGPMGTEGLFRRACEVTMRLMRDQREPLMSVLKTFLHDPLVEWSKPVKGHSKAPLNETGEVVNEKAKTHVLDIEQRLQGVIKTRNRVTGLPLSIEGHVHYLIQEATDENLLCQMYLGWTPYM
T1 sequence (Q8WXE1 whole entry partner): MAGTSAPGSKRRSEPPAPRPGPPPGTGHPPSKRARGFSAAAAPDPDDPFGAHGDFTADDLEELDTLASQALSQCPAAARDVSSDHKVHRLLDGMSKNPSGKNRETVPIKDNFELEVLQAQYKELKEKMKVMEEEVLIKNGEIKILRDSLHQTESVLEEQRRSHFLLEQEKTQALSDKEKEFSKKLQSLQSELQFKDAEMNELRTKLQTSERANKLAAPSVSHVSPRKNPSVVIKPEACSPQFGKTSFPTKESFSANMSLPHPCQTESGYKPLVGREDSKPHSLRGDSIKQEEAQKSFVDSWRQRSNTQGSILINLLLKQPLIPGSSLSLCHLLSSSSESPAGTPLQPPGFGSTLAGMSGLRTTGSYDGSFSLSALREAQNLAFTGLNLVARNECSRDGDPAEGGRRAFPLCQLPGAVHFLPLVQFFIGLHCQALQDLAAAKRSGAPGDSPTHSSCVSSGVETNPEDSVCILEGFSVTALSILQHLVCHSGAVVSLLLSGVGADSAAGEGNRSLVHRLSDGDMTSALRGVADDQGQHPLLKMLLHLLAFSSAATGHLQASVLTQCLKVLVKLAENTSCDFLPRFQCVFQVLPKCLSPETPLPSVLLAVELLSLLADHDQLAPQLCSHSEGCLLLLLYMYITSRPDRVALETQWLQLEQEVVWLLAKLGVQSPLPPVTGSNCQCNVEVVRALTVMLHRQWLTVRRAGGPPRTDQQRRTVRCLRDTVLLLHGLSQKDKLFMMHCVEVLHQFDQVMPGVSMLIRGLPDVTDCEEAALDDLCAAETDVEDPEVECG
T2 sequence (P09874 whole entry, species assumed): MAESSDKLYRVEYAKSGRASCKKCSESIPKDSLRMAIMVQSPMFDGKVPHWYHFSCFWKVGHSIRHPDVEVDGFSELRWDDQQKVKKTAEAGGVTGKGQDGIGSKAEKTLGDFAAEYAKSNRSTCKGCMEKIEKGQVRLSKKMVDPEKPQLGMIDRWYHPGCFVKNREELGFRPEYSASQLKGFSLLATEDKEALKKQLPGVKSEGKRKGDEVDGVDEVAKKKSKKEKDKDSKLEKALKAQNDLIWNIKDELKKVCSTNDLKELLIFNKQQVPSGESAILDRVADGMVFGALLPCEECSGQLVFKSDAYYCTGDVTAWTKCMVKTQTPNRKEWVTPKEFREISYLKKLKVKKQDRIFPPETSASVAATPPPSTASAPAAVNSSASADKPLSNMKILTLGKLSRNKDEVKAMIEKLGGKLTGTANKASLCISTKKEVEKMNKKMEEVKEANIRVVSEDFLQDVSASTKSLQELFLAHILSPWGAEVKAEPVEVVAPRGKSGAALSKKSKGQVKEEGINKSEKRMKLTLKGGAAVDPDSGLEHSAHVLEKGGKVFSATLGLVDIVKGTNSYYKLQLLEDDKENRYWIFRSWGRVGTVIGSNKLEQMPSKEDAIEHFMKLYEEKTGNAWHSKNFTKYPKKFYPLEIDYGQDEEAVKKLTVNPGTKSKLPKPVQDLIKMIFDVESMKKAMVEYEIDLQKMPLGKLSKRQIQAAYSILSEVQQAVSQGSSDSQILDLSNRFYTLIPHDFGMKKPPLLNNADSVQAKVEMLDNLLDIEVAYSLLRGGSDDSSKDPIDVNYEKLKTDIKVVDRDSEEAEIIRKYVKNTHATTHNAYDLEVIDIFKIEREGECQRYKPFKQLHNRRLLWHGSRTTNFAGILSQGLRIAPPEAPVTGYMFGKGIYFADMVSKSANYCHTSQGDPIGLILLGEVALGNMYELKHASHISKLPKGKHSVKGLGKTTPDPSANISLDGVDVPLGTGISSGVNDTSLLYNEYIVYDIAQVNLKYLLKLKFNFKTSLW

Compound	PARP1-trapping potency relative to JC099 (PARP1 in the chromatin-bound fraction) ([2]; PC3 cells)	ATR inhibition potency relative to JC099 (OLA- or UV-induced phosphorylation of Rad17 and CHK1) [1]	PARP1 trapped on DNA lesions ([2]; 0.3 μM, PC3 cells)	Olaparib induced phosphorylation of Rad17 at Ser 645 and CHK1 at Ser 345 ([1]; 1 μM and 2 μM, PC3 cells)	also measured
CCN(CC)C(=O)c1ccc(C(=O)NC2C/C(=C\c3ccc(F)c(F)c3)C(=O)/C(=C/c3ccc(F)c(F)c3)C2)c2nn(C)cc12 (stereo not shown) [JCS003, N^7-(3,5-bis((E)-3,4-difluorobenzylidene)-4-oxocyclohexyl)-N^4,N^4-diethyl-2-methyl-2H-indazole-4,7-dicarboxamide]	–	–	–	–	Olaparib induced phosphorylation of CHK1 at Ser 345 ([1]; 0.5 μM, 1 μM, 2 μM, PC3 and SUM149PT-BRCA1rev cells): inhibited; Olaparib induced phosphorylation of Rad17 at Ser 645 and CHK1 at Ser 345 ([1]; 2 μM, PC3 cells): inhibited; PARP1 trapped on DNA lesions ([2]; 0.5 μM, PC3 and C4-2B/MR cells): trapped
CCN(CC)C(=O)c1ccc(C2C/C(=C\c3ccc(F)c(F)c3)C(=O)/C(=C/c3ccc(F)c(F)c3)C2)c2nn(C)cc12 (stereo not shown) [JCS004, 7-(3,5-bis((E)-3,4-difluorobenzylidene)-4-oxocyclohexyl)-N,N-diethyl-2-methyl-2H-indazole-4-carboxamide]	–	–	–	–	UV induced phosphorylation of CHK1 at Ser 345 [1, 3]: inhibited; PARP1 trapped on DNA lesions [2, 4]: trapped
CCN(CC)C(=O)c1ccc(C2C/C(=C\c3ccc(F)c(F)c3)C(=O)/C(=C/c3ccc(F)c(F)c3)C2)c2[nH]ncc12 (stereo not shown) [JCS005, 7-(3,5-bis((E)-3,4-difluorobenzylidene)-4-oxocyclohexyl)-N,N-diethyl-1H-indazole-4-carboxamide]	–	–	–	–	UV induced phosphorylation of CHK1 at Ser 345 [1, 3]: inhibited; PARP1 trapped on DNA lesions [2, 4]: trapped
CCN(CC)C(=O)c1ccc(C(=O)NC2C/C(=C\c3ccc(F)c(F)c3)C(=O)/C(=C/c3ccc(F)c(F)c3)C2)c2[nH]ncc12 (stereo not shown) [JCS006, N^7-(3,5-bis((E)-3,4-difluorobenzylidene)-4-oxocyclohexyl)-N^4,N^4-diethyl-1H-indazole-4,7-dicarboxamide]	–	–	–	–	Olaparib induced phosphorylation of Rad17 at Ser 645 and CHK1 at Ser 345 ([1]; 2 μM, PC3 cells): inhibited; PARP1 trapped on DNA lesions ([2]; 0.5 μM, PC3 and C4-2B/MR cells): trapped
O=C1/C(=C/c2ccc(F)c(F)c2)CC(NC(=O)c2ccc(OCCN3CCCC3)cc2)C/C1=C\c1ccc(F)c(F)c1 (stereo not shown) [JCS008, N-(3,5-Bis((E)-3,4-difluorobenzylidene)-4-oxocyclohexyl)-4-(2-(pyrrolidin-1-yl)ethoxy)benzamide]	higher potency in PARP1-trapping	–	–	–	Olaparib induced phosphorylation of Rad17 at Ser 645 and CHK1 at Ser 345 ([1]; 1 μM and 2 μM, PC3 and MDA-MB-231 cells): inhibited; PARP1 trapped on DNA lesions ([2]; 0.5 μM and 2 μM, PC3 cells): trapped
CCCCN(CCCC)CCOc1ccc(C(=O)NC2C/C(=C\c3ccc(F)c(F)c3)C(=O)/C(=C/c3ccc(F)c(F)c3)C2)cc1 (stereo not shown) [JCS012, N-(3,5-Bis((E)-3,4-difluorobenzylidene)-4-oxocyclohexyl)-4-(2-(dibutylamino)ethoxy)benzamide]	higher potency in PARP1-trapping	greater ATR inhibition potential	–	–	PARP1 trapped on DNA lesions ([2]; 0.5 μM and 2 μM, PC3 cells): trapped
CN1CCN(CC(=O)Nc2ccc(C(=O)NC3C/C(=C\c4ccc(F)c(F)c4)C(=O)/C(=C/c4ccc(F)c(F)c4)C3)cc2)CC1 (stereo not shown) [JCS050, N-(3,5-bis((E)-3,4-difluorobenzylidene)-4-oxocyclohexyl)-4-(2-(4-methylpiperazin-1-yl)acetamido)benzamide]	higher potency in PARP1-trapping	greater ATR inhibition potential	trapped	–	–
O=C1/C(=C/c2ccc(F)c(F)c2)CC(NC(=O)c2ccc3c(ccn3CCN3CCCC3)c2)C/C1=C\c1ccc(F)c(F)c1 (stereo not shown) [JCS075, N-(3,5-bis((E)-3,4-difluorobenzylidene)-4-oxocyclohexyl)-1-(2-(pyrrolidin-1-yl)ethyl)-1H-indole-5-carboxamide]	increased the accumulation of PARP1 in the chromatin-bound fraction than JC099	–	–	decreased the phosphorylation of Rad17 and CHK1	–

More lines, main results first:

PARP1-trapping potency relative to JC099 (PARP1 in the chromatin-bound fraction) ([2]; PC3 cells)	ATR inhibition potency relative to JC099 (OLA- or UV-induced phosphorylation of Rad17 and CHK1) [1]	PARP1 trapped on DNA lesions ([2]; 0.3 μM, PC3 cells)	Olaparib induced phosphorylation of Rad17 at Ser 645 and CHK1 at Ser 345 ([1]; 1 μM and 2 μM, PC3 cells)	Compound	also measured
–	–	trapped	inhibited	CN(C)CCCN(CCCN(C)C)C(=O)Nc1ccc(C(=O)NC2C/C(=C\c3ccc(F)c(F)c3)C(=O)/C(=C/c3ccc(F)c(F)c3)C2)cc1 (stereo not shown) [JCS058, N-(3,5-bis((E)-3,4-difluorobenzylidene)-4-oxocyclohexyl)-4-(3,3-bis(3-(dimethylamino)propyl)ureido)benzamide]	–
–	–	trapped	inhibited	CCN(CC)C(=O)Nc1ccc(C(=O)NC2C/C(=C\c3ccc(F)c(F)c3)C(=O)/C(=C/c3ccc(F)c(F)c3)C2)cc1 (stereo not shown) [JCS059, N-(3,5-bis((E)-3,4-difluorobenzylidene)-4-oxocyclohexyl)-4-(3,3-diethylureido)benzamide]	–
higher potency in PARP1-trapping	–	trapped	inhibited	CCCCN(CCCC)C(=O)Nc1ccc(C(=O)NC2C/C(=C\c3ccc(F)c(F)c3)C(=O)/C(=C/c3ccc(F)c(F)c3)C2)cc1 (stereo not shown) [JCS060, N-(3,5-bis((E)-3,4-difluorobenzylidene)-4-oxocyclohexyl)-4-(3,3-dibutylureido)benzamide]	–
–	–	trapped	inhibited	O=C1/C(=C/c2cc(Cl)cc(Cl)c2)CC(NC(=O)c2ccc(OCCN3CCCCC3)cc2)C/C1=C\c1cc(Cl)cc(Cl)c1 (stereo not shown) [JCS061, N-(3,5-Bis((E)-3,5-dichlorobenzylidene)-4-oxocyclohexyl)-4-(2-(piperidin-1-yl)ethoxy)benzamide]	–
–	–	trapped	inhibited	CCCN(CCC)CCOc1ccc(C(=O)NC2C/C(=C\c3cc(Cl)cc(Cl)c3)C(=O)/C(=C/c3cc(Cl)cc(Cl)c3)C2)cc1 (stereo not shown) [JCS062, N-(3,5-Bis((E)-3,5-dichlorobenzylidene)-4-oxocyclohexyl)-4-(2-(dipropylamino)ethoxy)benzamide]	–
higher potency in PARP1-trapping	their potencies were close to JC099	–	–	O=C1/C(=C/c2ccc(F)c(F)c2)CC(NC(=O)c2cnc(NCCN3CCCC3)cc2C(F)(F)F)C/C1=C\c1ccc(F)c(F)c1 (stereo not shown) [JCS094, N-(3,5-Bis((E)-3,4-difluorobenzylidene)-4-oxocyclohexyl)-6-((2-(pyrrolidin-1-yl)ethyl)amino)-4-(trifluoromethyl)nicotinamide]	–
higher potency in PARP1-trapping	greater ATR inhibition potential	–	–	CCN(CCOC)CCOc1ccc(C(=O)NC2C/C(=C\c3ccc(F)c(F)c3)C(=O)/C(=C/c3ccc(F)c(F)c3)C2)cc1 (stereo not shown) [JCS109, N-(3,5-Bis((E)-3,4-difluorobenzylidene)-4-oxocyclohexyl)-4-(2-(ethyl(2-methoxyethyl)amino)eth-oxy)benzamide]	–
higher potency in PARP1-trapping	their potencies were close to JC099	–	–	CCN(CC)CCOc1nncc2cc(C(=O)NC3C/C(=C\c4ccc(F)c(F)c4)C(=O)/C(=C/c4ccc(F)c(F)c4)C3)ccc12 (stereo not shown) [JCS133, N-(3,5-Bis((E)-3,4-difluorobenzylidene)-4-oxocyclohexyl)-1-(2-(diethylamino)ethoxy)phthalazine-6-carboxamide]	–
their potencies were less than JC099	less ATR inhibition potencies	–	–	CCN(CC)CCOc1ccc(C(=O)NC2C/C(=C\c3ccc(F)cc3)C(=O)/C(=C/c3ccc(F)cc3)C2)cc1 (stereo not shown) [JCS149, N-(3,5-Bis((E)-4-fluorobenzylidene)-4-oxocyclohexyl)-4-(2-(diethylamino)ethoxy)benzamide]	–
their potencies were less than JC099	their potencies were close to JC099	–	–	O=C1/C(=C/c2ccc(F)c(F)c2)CC(NC(=O)c2ccc(OCCNN3CCCCC3)cc2)C/C1=C\c1ccc(F)c(F)c1 (stereo not shown) [JCS150, N-(3,5-Bis((E)-3,4-difluorobenzylidene)-4-oxocyclohexyl)-4-(2-(piperidin-1-ylamino)ethoxy)-benzamide]	–
their potencies were less than JC099	their potencies were close to JC099	–	–	O=C1/C(=C/c2ccc(F)c(F)c2)CC(NC(=O)c2ccc(OCCN3CC4(COC4)C3)cc2)C/C1=C\c1ccc(F)c(F)c1 (stereo not shown) [JCS151, 4-(2-(2-Oxa-6-azaspiro[3.3]heptan-6-yl)ethoxy)-N-(3,5-bis((E)-3,4-difluorobenzylidene)-4-oxocyclohexyl)benzamide]	–
